EC50 data for 2 compounds are collected here from ChEMBL document CHEMBL1146571, “Mycalosides B-I, eight new spermostatic steroid oligoglycosides from the sponge Mycale laxissima” (J Nat Prod, 2003).

This assay in a line: Spermatostatic activity against Strongylocentrotus nudus sperm assessed as inhibition of egg fertilization preincubated 15 mins before artificial insemination. Format: functional, cell-based, Mesocentrotus nudus.

Converted amounts (≈) assume the structure as drawn.

On to `CC(C)CCC[C@@H](CO)[C@H]1CC(=O)[C@H]2[C@@H]3CC=C4[C@@H](O)[C@@H](O[C@@H]5O[C@H](CO)[C@@H](O[C@@H]6O[C@H](CO)[C@H](O)[C@H](O)[C@H]6O)[C@H](O[C@@H]6OC[C@@H](O)[C@@H](O)[C@@H]6O[C@H]6O[C@H](CO)[C@H](O)[C@H](O)[C@H]6O)[C@H]5O)CC[C@]4(C)[C@H]3CC[C@]12C` [MYCALOSIDE G], for which the EC50 turned out to be 3.2 µg/mL (≈ 3.04 µM).

Regarding `CC(C)[C@H](C)/C=C/[C@@H](CO)[C@H]1C[C@H](O)[C@H]2[C@@H]3CC=C4[C@@H](O)[C@@H](O[C@@H]5O[C@H](CO)[C@@H](O[C@@H]6O[C@H](CO)[C@H](O)[C@H](O)[C@H]6O)[C@H](O[C@@H]6OC[C@@H](O)[C@@H](O)[C@@H]6O[C@H]6O[C@H](CO)[C@H](O)[C@H](O)[C@H]6O)[C@H]5O)CC[C@]4(C)[C@H]3CC[C@@]21C` [MYCALOSIDE A], the EC50 was 3.2 µg/mL (≈ 3 µM).
